Data taken from the NIST ThermoML archive (doi:10.1021/je900596d).

Details: for mass density: Vibrating tube method

FC(F)=C(F)C(F)(F)F [hexafluoropropene]
Details | mass density [kg/m3] | vapor or sublimation pressure [kPa]
355.18 K, 9543 kPa, Liquid | 1138.93 | –
355.18 K, 9592.9 kPa, Liquid | 1139.78 | –
355.18 K, 9645.5 kPa, Liquid | 1140.58 | –
355.18 K, 9695.7 kPa, Liquid | 1141.39 | –
355.18 K, 9747.1 kPa, Liquid | 1142.23 | –
355.18 K, 9796.2 kPa, Liquid | 1143.06 | –
355.18 K, 9846.2 kPa, Liquid | 1143.79 | –
355.18 K, 9896.5 kPa, Liquid | 1144.79 | –
355.18 K, 9947.2 kPa, Liquid | 1145.37 | –
355.18 K, 9998.1 kPa, Liquid | 1146.19 | –
355.24 K, Liquid, Closed cell (Static) method | – | 2903
355.27 K, 1.7 kPa, Fluid (supercritical or subcritical phases) | 0.1 | –
355.27 K, 2.5 kPa, Fluid (supercritical or subcritical phases) | 0.14 | –
355.27 K, 3.1 kPa, Fluid (supercritical or subcritical phases) | 0.19 | –
355.27 K, 3.6 kPa, Fluid (supercritical or subcritical phases) | 0.23 | –
355.27 K, 4.8 kPa, Fluid (supercritical or subcritical phases) | 0.28 | –
355.27 K, 5.8 kPa, Fluid (supercritical or subcritical phases) | 0.37 | –
355.27 K, 6.4 kPa, Fluid (supercritical or subcritical phases) | 0.38 | –
355.27 K, 7.6 kPa, Fluid (supercritical or subcritical phases) | 0.44 | –
355.27 K, 8.8 kPa, Fluid (supercritical or subcritical phases) | 0.47 | –
355.27 K, 9.4 kPa, Fluid (supercritical or subcritical phases) | 0.5 | –
355.27 K, 10 kPa, Fluid (supercritical or subcritical phases) | 0.52 | –
355.27 K, 11.3 kPa, Fluid (supercritical or subcritical phases) | 0.61 | –
355.27 K, 12.5 kPa, Fluid (supercritical or subcritical phases) | 0.64 | –
355.27 K, 13.7 kPa, Fluid (supercritical or subcritical phases) | 0.67 | –
355.27 K, 15 kPa, Fluid (supercritical or subcritical phases) | 0.66 | –
355.27 K, 16 kPa, Fluid (supercritical or subcritical phases) | 0.83 | –
355.27 K, 18.5 kPa, Fluid (supercritical or subcritical phases) | 0.93 | –
355.27 K, 19.9 kPa, Fluid (supercritical or subcritical phases) | 1.04 | –
355.27 K, 21.2 kPa, Fluid (supercritical or subcritical phases) | 1.09 | –
355.27 K, 22.2 kPa, Fluid (supercritical or subcritical phases) | 1.15 | –
355.27 K, 23.4 kPa, Fluid (supercritical or subcritical phases) | 1.24 | –
355.27 K, 24.5 kPa, Fluid (supercritical or subcritical phases) | 1.28 | –
355.27 K, 25.7 kPa, Fluid (supercritical or subcritical phases) | 1.37 | –
355.27 K, 26.7 kPa, Fluid (supercritical or subcritical phases) | 1.39 | –
355.27 K, 27.9 kPa, Fluid (supercritical or subcritical phases) | 1.42 | –
355.27 K, 29.2 kPa, Fluid (supercritical or subcritical phases) | 1.46 | –
355.27 K, 30.3 kPa, Fluid (supercritical or subcritical phases) | 1.62 | –
355.27 K, 31.3 kPa, Fluid (supercritical or subcritical phases) | 1.64 | –
355.27 K, 32.3 kPa, Fluid (supercritical or subcritical phases) | 1.71 | –
355.27 K, 34.6 kPa, Fluid (supercritical or subcritical phases) | 1.82 | –
355.27 K, 37.4 kPa, Fluid (supercritical or subcritical phases) | 1.95 | –
355.27 K, 41.7 kPa, Fluid (supercritical or subcritical phases) | 2.14 | –
355.27 K, 47.8 kPa, Fluid (supercritical or subcritical phases) | 2.49 | –
355.27 K, 53.6 kPa, Fluid (supercritical or subcritical phases) | 2.8 | –
355.27 K, 58 kPa, Fluid (supercritical or subcritical phases) | 3.03 | –
355.27 K, 62.5 kPa, Fluid (supercritical or subcritical phases) | 3.28 | –
355.27 K, 67.1 kPa, Fluid (supercritical or subcritical phases) | 3.54 | –
355.27 K, 71.8 kPa, Fluid (supercritical or subcritical phases) | 3.72 | –
355.27 K, 76 kPa, Fluid (supercritical or subcritical phases) | 4.09 | –
355.27 K, 80.2 kPa, Fluid (supercritical or subcritical phases) | 4.21 | –
355.27 K, 84.7 kPa, Fluid (supercritical or subcritical phases) | 4.42 | –
355.27 K, 89.7 kPa, Fluid (supercritical or subcritical phases) | 4.7 | –
355.27 K, 94.5 kPa, Fluid (supercritical or subcritical phases) | 4.96 | –
355.27 K, 99.2 kPa, Fluid (supercritical or subcritical phases) | 5.14 | –
355.27 K, 108.4 kPa, Fluid (supercritical or subcritical phases) | 5.69 | –
355.27 K, 121.7 kPa, Fluid (supercritical or subcritical phases) | 6.32 | –
355.27 K, 136.3 kPa, Fluid (supercritical or subcritical phases) | 7.14 | –
355.27 K, 150.1 kPa, Fluid (supercritical or subcritical phases) | 7.91 | –
355.27 K, 175.9 kPa, Fluid (supercritical or subcritical phases) | 9.29 | –
355.27 K, 189 kPa, Fluid (supercritical or subcritical phases) | 9.98 | –
355.27 K, 202.9 kPa, Fluid (supercritical or subcritical phases) | 10.67 | –
355.27 K, 215.8 kPa, Fluid (supercritical or subcritical phases) | 11.37 | –
355.27 K, 229.6 kPa, Fluid (supercritical or subcritical phases) | 12.15 | –
355.27 K, 243.8 kPa, Fluid (supercritical or subcritical phases) | 12.89 | –
355.27 K, 256.5 kPa, Fluid (supercritical or subcritical phases) | 13.54 | –
355.27 K, 269.4 kPa, Fluid (supercritical or subcritical phases) | 14.27 | –
355.27 K, 282.8 kPa, Fluid (supercritical or subcritical phases) | 15.02 | –
355.27 K, 296.5 kPa, Fluid (supercritical or subcritical phases) | 15.74 | –
355.27 K, 310.2 kPa, Fluid (supercritical or subcritical phases) | 16.52 | –
355.27 K, 323.9 kPa, Fluid (supercritical or subcritical phases) | 17.3 | –
355.27 K, 337.3 kPa, Fluid (supercritical or subcritical phases) | 18.03 | –
355.27 K, 350.9 kPa, Fluid (supercritical or subcritical phases) | 18.72 | –
355.27 K, 364 kPa, Fluid (supercritical or subcritical phases) | 19.44 | –
355.27 K, 377.5 kPa, Fluid (supercritical or subcritical phases) | 20.18 | –
355.27 K, 390.9 kPa, Fluid (supercritical or subcritical phases) | 20.91 | –
355.27 K, 410.7 kPa, Fluid (supercritical or subcritical phases) | 22.1 | –
355.27 K, 423.7 kPa, Fluid (supercritical or subcritical phases) | 22.78 | –
355.27 K, 436.7 kPa, Fluid (supercritical or subcritical phases) | 23.55 | –
355.27 K, 449.9 kPa, Fluid (supercritical or subcritical phases) | 24.26 | –
355.27 K, 463 kPa, Fluid (supercritical or subcritical phases) | 25.02 | –
355.27 K, 475.5 kPa, Fluid (supercritical or subcritical phases) | 25.74 | –
355.27 K, 489.9 kPa, Fluid (supercritical or subcritical phases) | 26.57 | –
355.27 K, 511.2 kPa, Fluid (supercritical or subcritical phases) | 27.76 | –
355.27 K, 534.4 kPa, Fluid (supercritical or subcritical phases) | 29.14 | –
355.27 K, 558.1 kPa, Fluid (supercritical or subcritical phases) | 30.53 | –
355.27 K, 570.3 kPa, Fluid (supercritical or subcritical phases) | 31.19 | –
355.27 K, 593.4 kPa, Fluid (supercritical or subcritical phases) | 32.6 | –
355.27 K, 605.4 kPa, Fluid (supercritical or subcritical phases) | 33.29 | –
355.27 K, 629.1 kPa, Fluid (supercritical or subcritical phases) | 34.75 | –
355.27 K, 652.5 kPa, Fluid (supercritical or subcritical phases) | 36.04 | –
355.27 K, 675.6 kPa, Fluid (supercritical or subcritical phases) | 37.5 | –
355.27 K, 698.5 kPa, Fluid (supercritical or subcritical phases) | 38.93 | –
355.27 K, 710.6 kPa, Fluid (supercritical or subcritical phases) | 39.6 | –
355.27 K, 733.2 kPa, Fluid (supercritical or subcritical phases) | 40.98 | –
355.27 K, 755.9 kPa, Fluid (supercritical or subcritical phases) | 42.45 | –
355.27 K, 778.4 kPa, Fluid (supercritical or subcritical phases) | 43.82 | –
355.27 K, 800.7 kPa, Fluid (supercritical or subcritical phases) | 45.25 | –
355.27 K, 822.7 kPa, Fluid (supercritical or subcritical phases) | 46.65 | –
355.27 K, 844.7 kPa, Fluid (supercritical or subcritical phases) | 48.08 | –
355.27 K, 866.4 kPa, Fluid (supercritical or subcritical phases) | 49.39 | –
355.27 K, 887.6 kPa, Fluid (supercritical or subcritical phases) | 50.79 | –
355.27 K, 909.3 kPa, Fluid (supercritical or subcritical phases) | 52.17 | –
355.27 K, 921.7 kPa, Fluid (supercritical or subcritical phases) | 53.01 | –
355.27 K, 942.8 kPa, Fluid (supercritical or subcritical phases) | 54.34 | –
355.27 K, 963 kPa, Fluid (supercritical or subcritical phases) | 55.68 | –
355.27 K, 985.5 kPa, Fluid (supercritical or subcritical phases) | 57.29 | –
355.27 K, 1007.7 kPa, Fluid (supercritical or subcritical phases) | 58.71 | –
355.27 K, 1053.4 kPa, Fluid (supercritical or subcritical phases) | 61.79 | –
355.27 K, 1076.3 kPa, Fluid (supercritical or subcritical phases) | 63.38 | –
355.27 K, 1097.4 kPa, Fluid (supercritical or subcritical phases) | 64.83 | –
355.27 K, 1119.1 kPa, Fluid (supercritical or subcritical phases) | 66.35 | –
355.27 K, 1140.9 kPa, Fluid (supercritical or subcritical phases) | 67.89 | –
355.27 K, 1162.7 kPa, Fluid (supercritical or subcritical phases) | 69.42 | –
355.27 K, 1184.6 kPa, Fluid (supercritical or subcritical phases) | 70.94 | –
355.27 K, 1205.7 kPa, Fluid (supercritical or subcritical phases) | 72.55 | –
355.27 K, 1226.6 kPa, Fluid (supercritical or subcritical phases) | 74.03 | –
355.27 K, 1248.5 kPa, Fluid (supercritical or subcritical phases) | 75.63 | –
355.27 K, 1268.8 kPa, Fluid (supercritical or subcritical phases) | 77.12 | –
355.27 K, 1291.7 kPa, Fluid (supercritical or subcritical phases) | 78.82 | –
355.27 K, 1314.5 kPa, Fluid (supercritical or subcritical phases) | 80.53 | –
355.27 K, 1336.6 kPa, Fluid (supercritical or subcritical phases) | 82.25 | –
355.27 K, 1358.9 kPa, Fluid (supercritical or subcritical phases) | 83.95 | –
355.27 K, 1380.8 kPa, Fluid (supercritical or subcritical phases) | 85.69 | –
355.27 K, 1401.7 kPa, Fluid (supercritical or subcritical phases) | 87.28 | –
355.27 K, 1423 kPa, Fluid (supercritical or subcritical phases) | 89.04 | –
355.27 K, 1445 kPa, Fluid (supercritical or subcritical phases) | 90.76 | –
355.27 K, 1465.4 kPa, Fluid (supercritical or subcritical phases) | 92.28 | –
355.27 K, 1486.6 kPa, Fluid (supercritical or subcritical phases) | 94.07 | –
355.27 K, 1509.1 kPa, Fluid (supercritical or subcritical phases) | 95.9 | –
355.27 K, 1531 kPa, Fluid (supercritical or subcritical phases) | 97.69 | –
355.27 K, 1552.1 kPa, Fluid (supercritical or subcritical phases) | 99.45 | –
355.27 K, 1573.2 kPa, Fluid (supercritical or subcritical phases) | 101.27 | –
